In patent US11685744B2, “CDK inhibitors and their use as pharmaceuticals” (Prelude Therapeutics, Incorporated, priority 2020, dated 2023):

What was measured:
CDK4/Cyclin D1 = CDK4/Cyclin D1 (Homo sapiens (Human), UniProt P11802); assay: CDK4/CyclinD1 enzymatic activity assay (TR-FRET); format: biochemical; settings: ATP 2 mM, read-out: CDK4_D1 IC50
Description: CDK4/CyclinD1 Enzymatic Activity Assay
The inhibitory activity of compounds was evaluated in vitro using TR-FRET assay with white 384-well low volume microplate (Greiner Bio-One). CDK4/Cyclin D1 catalyzed phosphorylation of peptide in the presence and absence of compounds was measured. IC50 determination. Recombinant protein complex CDK4/Cyclin D1, expressed from insect cell, was purchased from ProQinase. Testing compounds were dissolved in DMSO at 0.1 mM and tested in 9-dose IC50 mode. The reaction mixture was prepared by mixing CDK4/CyclinD1 (1 nM final), ULight-4E-BP1 (100 nM final, Perkinelmer, TRF0128-D), and ATP (2 mM final) in assay buffer (20 mM of HEPES pH 7.4, 1 mM of EGTA, 0.05% BSA, 0.005% Tween 20, and 1 mM TCEP). The compound of interest in DMSO was added to each well in 3-fold serial dilution by dispenser (TECAN D300E). After 20 minutes preincubation at room temperature, MgCl2 (10 mM final) was added to initiate the reaction. Following a 60 minutes incubation at 37° C., the reaction was stopped by addition of 2 μL of quenching buffer consisting of Lance detection buffer (Perkinelmer CR97-100C), 2 nM LANCE Ultra Europium-anti-P-4E-BP1 (Perkinelmer, TRF0216-D), 10 mM EDTA, and incubate at room temperature for additional 60 minutes in dark. The reaction signal was measured by Envision multimode plate reader (PerkinElmer, 2102-0010). IC50 values were determined by fitting the data to the standard 4 parameters with Hill Slope using GraphPad Prism software.

[1] = tested on: MCF7 adenocarcinoma cell line; assay: Cell proliferation studies in MCF7 cells (ATP-Lite, 10 days); format: cell-based; settings: Homo sapiens, 240 h, read-out: PROLIFERATION_CTG_MCF7 IC50
Description: Cell Proliferation Studies in MCF7 Cells
Cell proliferation studies were conducted in MCF7 adenocarcinoma cell line. Cells were maintained in DMEM (Coming, Catalog #: 10-013-CV) supplemented with 10% v/v FBS (Gibco, Catalog #: 26140-079), 1% v/v Penicillin Streptomycin (Gibco, Catalog #15140-122) Cells were seeded in 384-well plates at a density of 100 or 200 cells/well. Compounds dissolved in DMSO were plated in quadruplicate using a digital dispenser (D300E, Tecan) and tested on a 9-point 3-fold serial dilution. Cells were incubated for 10 days in a 37° C. active humidified incubator at 5% CO2. A media exchange and second compound addition were performed on day 5. Cell viability was measured using the ATP-Lite 1-Step Luminescence reagent (Perkin Elmer, Catalog #: 6016731) as per manufacturer's instructions. Luminescence signal was measured with a multimode plate reader (Envision 2105, Perkin Elmer). Raw data files were imported to Dotmatics Screening Ultra for IC50 analysis. Luminescence values were normalized to both background and DMSO controls to obtain a percentage of viable cells relative to DMSO vehicle control.

CDK4/Cyclin D1, sequence (P11802 whole entry): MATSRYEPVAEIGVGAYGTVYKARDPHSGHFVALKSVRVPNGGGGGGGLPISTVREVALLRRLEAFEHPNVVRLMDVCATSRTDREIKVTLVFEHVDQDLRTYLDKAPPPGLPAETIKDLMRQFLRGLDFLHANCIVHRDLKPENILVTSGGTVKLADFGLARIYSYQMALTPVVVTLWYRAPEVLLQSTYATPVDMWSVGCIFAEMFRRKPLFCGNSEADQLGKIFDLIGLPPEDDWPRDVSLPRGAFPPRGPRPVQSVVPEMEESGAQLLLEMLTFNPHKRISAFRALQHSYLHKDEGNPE
CDK4/Cyclin D1, sequence (P24385 whole entry partner): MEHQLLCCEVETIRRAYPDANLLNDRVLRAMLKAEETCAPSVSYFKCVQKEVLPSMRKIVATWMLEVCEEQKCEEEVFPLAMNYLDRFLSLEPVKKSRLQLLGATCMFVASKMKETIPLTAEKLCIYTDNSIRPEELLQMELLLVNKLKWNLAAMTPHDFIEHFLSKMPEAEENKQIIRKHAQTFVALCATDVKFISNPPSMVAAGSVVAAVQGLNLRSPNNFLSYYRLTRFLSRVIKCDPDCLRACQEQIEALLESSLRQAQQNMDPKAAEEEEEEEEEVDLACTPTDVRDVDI

SMILES	IC50 (CDK4/Cyclin D1)	IC50 [1]
Cc1nc2cc(-c3nc(Nc4ccc(N5CCN(C)CC5)cn4)ncc3F)sc2n1C1CCCC1 [Example 13, 4-(3-Cyclopentyl-2-methyl-3H-thieno[2,3-d]imidazol-5-yl)-5-fluoro-N-(5-(4-methylpiperazin-1-yl)pyridin-2-yl)pyrimidin-2-amine]	≤ 20 nM	20 to 200 nM
CCN1CCN(c2ccc(Nc3ncc(F)c(-c4cc5nccc(C(C)C)c5s4)n3)nc2)CC1 [Example 14, N-[5-(4-Ethylpiperazin-1-yl)pyridin-2-yl]-5-fluoro-4-(7-propan-2-ylthieno[3,2-b]pyridin-2-yl)pyrimidin-2-amine]	≤ 20 nM	20 to 200 nM
CCN1CCN(c2ccc(Nc3ncc(F)c(-c4sc5c(C6CCCC6)ccnc5c4Cl)n3)nc2)CC1 [Example 16, 4-(3-Chloro-7-cyclopentylthieno[3,2-b]pyridin-2-yl)-N-[5-(4-ethylpiperazin-1-yl)pyridin-2-yl]-5-fluoropyrimidin-2-amine]	≤ 20 nM	20 to 200 nM
CCN1CC2(C1)CN(c1ccc(Nc3ncc(F)c(-c4cc5nccc(C(C)(O)C(F)(F)F)c5s4)n3)nc1)C2 (stereo not drawn) [Example 18, 2-[2-[2-[[5-(6-Ethyl-2,6-diazaspiro[3.3]heptan-2-yl)pyridin-2-yl]amino]-5-fluoropyrimidin-4-yl]thieno[3,2-b]pyridin-7-yl]-1,1,1-trifluoropropan-2-ol]	20 to 200 nM	20 to 200 nM
CCN1CCN(Cc2ccc(Nc3ncc(F)c(-c4cc5nccc(C(C)C)c5s4)n3)nc2)CC1 [Example 19, N-[5-[(4-Ethylpiperazin-1-yl)methyl]pyridin-2-yl]-5-fluoro-4-(7-propan-2-ylthieno[3,2-b]pyridin-2-yl)pyrimidin-2-amine]	20 to 200 nM	200 to 2000 nM
CCN1CCC(c2ccc(Nc3ncc(F)c(-c4sc5c(C6CCCC6)ccnc5c4Cl)n3)nc2)CC1 [Example 20, 4-(3-Chloro-7-cyclopentylthieno[3,2-b]pyridin-2-yl)-N-[5-(1-ethylpiperidin-4-yl)pyridin-2-yl]-5-fluoropyrimidin-2-amine]	≤ 20 nM	20 to 200 nM
CCN1CCN(Cc2ccc(Nc3ncc(F)c(-c4sc5c(C6CCCC6)ccnc5c4C)n3)nc2)CC1 [Example 22, 4-(7-Cyclopentyl-3-methylthieno[3,2-b]pyridin-2-yl)-N-(5-((4-ethylpiperazin-1-yl)methyl)pyridin-2-yl)-5-fluoropyrimidin-2-amine]	20 to 200 nM	200 to 2000 nM
CCN1CCN(c2ccc(Nc3ncc(F)c(-c4cc5nccc(C6CCCC6)c5s4)n3)nc2)CC1 [Example 24, 4-(7-Cyclopentylthieno[3,2-b]pyridin-2-yl)-N-[5-(4-ethylpiperazin-1-yl)pyridin-2-yl]-5-fluoropyrimidin-2-amine]	20 to 200 nM	200 to 2000 nM
CCN1CCN(Cc2ccc(Nc3ncc(F)c(-c4cc5nccc(C(C)(O)C(F)(F)F)c5s4)n3)nc2)CC1 (stereo not drawn) [Example 25, 2-[2-[2-[[5-[(4-Ethylpiperazin-1-yl)methyl]pyridin-2-yl]amino]-5-fluoropyrimidin-4-yl]thieno[3,2-b]pyridin-7-yl]-1,1,1-trifluoropropan-2-ol]	20 to 200 nM	20 to 200 nM
Cc1c(-c2nc(Nc3ccc(C4CCN(C)CC4)cn3)ncc2F)sc2c(C3CCCC3)ccnc12 [Example 26, 4-(7-Cyclopentyl-3-methylthieno[3,2-b]pyridin-2-yl)-5-fluoro-N-(5-(1-methylpiperidin-4-yl)pyridin-2-yl)pyrimidin-2-amine]	≤ 20 nM	20 to 200 nM
CCN1CCN(Cc2ccc(Nc3ncc(F)c(-c4cc5nccc(C(C)(C)O)c5s4)n3)nc2)CC1 [Example 27, 2-[2-[2-[[5-[(4-Ethylpiperazin-1-yl)methyl]pyridin-2-yl]amino]-5-fluoropyrimidin-4-yl]thieno[3,2-b]pyridin-7-yl]propan-2-ol]	20 to 200 nM	200 to 2000 nM
Cc1c(-c2nc(Nc3ccc(N4CCN(C)CC4)cn3)ncc2F)sc2c(C3CCCC3)ccnc12 [Example 28, 4-(7-Cyclopentyl-3-methylthieno[3,2-b]pyridin-2-yl)-5-fluoro-N-(5-(4-methylpiperazin-1-yl)pyridin-2-yl)pyrimidin-2-amine]	20 to 200 nM	200 to 2000 nM

Now from value to molecule:

IC50 (CDK4/Cyclin D1)	IC50 [1]	SMILES
20 to 200 nM	20 to 200 nM	CCN1CCN(c2ccc(Nc3ncc(F)c(-c4cc5nccc(C(C)(O)C(F)(F)F)c5s4)n3)nc2)CC1 (stereo not drawn) [Example 29, 2-[2-[2-[[5-(4-Ethylpiperazin-1-yl)pyridin-2-yl]amino]-5-fluoropyrimidin-4-yl]thieno[3,2-b]pyridin-7-yl]-1,1,1-trifluoropropan-2-ol]
20 to 200 nM	200 to 2000 nM	CCN1CCN(c2ccc(Nc3ncc(F)c(-c4sc5c(C6CCCC6)ccnc5c4C)n3)nc2)CC1 [Example 31, 4-(7-Cyclopentyl-3-methylthieno[3,2-b]pyridin-2-yl)-N-(5-(4-ethylpiperazin-1-yl)pyridin-2-yl)-5-fluoropyrimidin-2-amine]
≤ 20 nM	200 to 2000 nM	Cc1c(-c2nc(Nc3ccc(N4CC5(CNC5)C4)cn3)ncc2F)sc2c(C3CCCC3)ccnc12 [Example 32, N-(5-(2,6-Diazaspiro[3.3]heptan-2-yl)pyridin-2-yl)-4-(7-cyclopentyl-3-methylthieno[3,2-b]pyridin-2-yl)-5-fluoropyrimidin-2-amine]
≤ 20 nM	200 to 2000 nM	CCN1CCN(Cc2ccc(Nc3ncc(F)c(-c4cc5nccc(C6CCCC6)c5s4)n3)nc2)CC1 [Example 33, 4-(7-Cyclopentylthieno[3,2-b]pyridin-2-yl)-N-[5-[(4-ethylpiperazin-1-yl)methyl]pyridin-2-yl]-5-fluoropyrimidin-2-amine]
≤ 20 nM	20 to 200 nM	CN1CCC(c2ccc(Nc3ncc(F)c(-c4cc5nccc(C6CCCC6)c5s4)n3)nc2)CC1 [Example 34, 4-(7-Cyclopentylthieno[3,2-b]pyridin-2-yl)-5-fluoro-N-(5-(1-methylpiperidin-4-yl)pyridin-2-yl)pyrimidin-2-amine]
20 to 200 nM	200 to 2000 nM	Fc1cnc(Nc2ccc(N3CCNCC3)cn2)nc1-c1cc2nccc(C3CCCC3)c2s1 [Example 36, 4-(7-Cyclopentylthieno[3,2-b]pyridin-2-yl)-5-fluoro-N-(5-piperazin-1-ylpyridin-2-yl)pyrimidin-2-amine]
20 to 200 nM	200 to 2000 nM	CN1CCN(c2ccc(Nc3ncc(F)c(-c4cc5nccc(C6CCCC6)c5s4)n3)nc2)CC1 [Example 37, 4-(7-Cyclopentylthieno[3,2-b]pyridin-2-yl)-5-fluoro-N-[5-(4-methylpiperazin-1-yl)pyridin-2-yl]pyrimidin-2-amine]
20 to 200 nM	> 2000 nM	Cc1c(-c2nc(Nc3ccc(N4CCOCC4)cn3)ncc2F)sc2c(C3CCCC3)ccnc12 [Example 38, 4-(7-Cyclopentyl-3-methylthieno[3,2-b]pyridin-2-yl)-5-fluoro-N-(5-morpholinopyridin-2-yl)pyrimidin-2-amine]
20 to 200 nM	200 to 2000 nM	COC1CCN(c2ccc(Nc3ncc(F)c(-c4cc5nccc(C6CCCC6)c5s4)n3)nc2)CC1 [Example 39, 4-(7-Cyclopentylthieno[3,2-b]pyridin-2-yl)-5-fluoro-N-[5-(4-methoxypiperidin-1-yl)pyridin-2-yl]pyrimidin-2-amine]
20 to 200 nM	> 2000 nM	Fc1cnc(Nc2ccc(N3CCOCC3)cn2)nc1-c1cc2nccc(C3CCCC3)c2s1 [Example 40, 4-(7-Cyclopentylthieno[3,2-b]pyridin-2-yl)-5-fluoro-N-(5-morpholinopyridin-2-yl)pyrimidin-2-amine]
200 to 2000 nM	> 2000 nM	Fc1cnc(Nc2ccc(N3CCC(F)(F)C3)cn2)nc1-c1cc2nccc(C3CCCC3)c2s1 [Example 41, 4-(7-Cyclopentylthieno[3,2-b]pyridin-2-yl)-N-[5-(3,3-difluoropyrrolidin-1-yl)pyridin-2-yl]-5-fluoropyrimidin-2-amine]
200 to 2000 nM	> 2000 nM	Fc1cnc(Nc2ccc(N3CCOCC3)cn2)nc1-c1cc2c(C3CCCC3)ccnc2s1 [Example 42, 4-(4-Cyclopentylthieno[2,3-b]pyridin-2-yl)-5-fluoro-N-(5-morpholin-4-ylpyridin-2-yl)pyrimidin-2-amine]
